In patent US9301885B2, “Absorbent article” (UNICHARM CORPORATION, priority 2011, dated 2016):

Test: Water solubility
Conditions: in 100 g of water at 25° C., 24 hours, visual evaluation
Text: As used herein, the term “solubility” used herein in regard to water solubility includes cases where the sample completely dissolves in deionized water to form a homogeneous mixture, and cases where the sample is completely emulsified. As used herein, “completely” means that none of the sample remains in the deionized water.

Water solubility (Table 2): <0.05 g
Water solubility (Table 3): <0.05 g
SMILES: CCCCC(CC)C(=O)OCC(C)(C)COC(=O)C(CC)CCCC (centres unmarked) [H-208BRS, Neopentylglycol di(2-ethylhexanoate)]
